Assay results taken from the NIST ThermoML archive (doi:10.1021/acs.jced.6b00516).

Experiment: xn = mol fraction of the nth substance listed
Conditions: for viscosity / speed of sound: 102 kPa, Liquid; for viscosity: Concentric cylinders viscometry; for speed of sound: Frequency=3 MHz, Sing-around technique in a fixed-path interferometer; for surface tension liquid-gas: 294.4 K, Sessile Drop

CCCCC1CCCCC1 [butylcyclohexane] + CCCCCCCCCCCCCCCC
Conditions | speed of sound [m/s] | viscosity [mPa·s]
293.15 K, x1 = 0.1524 | 1353.6 | 3.07
293.15 K, x1 = 0.2876 | 1349.9 | 2.76
293.15 K, x1 = 0.4091 | 1346.4 | 2.48
293.15 K, x1 = 0.5182 | 1343.3 | 2.25
293.15 K, x1 = 0.6173 | 1340.4 | 2.04
293.15 K, x1 = 0.7078 | 1337.4 | 1.86
293.15 K, x1 = 0.7902 | 1334.9 | 1.7
293.15 K, x1 = 0.8658 | 1332.7 | 1.55
293.15 K, x1 = 0.9355 | 1330.4 | 1.42
293.15 K, x1 = 1 | – | 1.31
303.15 K, x1 = 0.1524 | 1316.4 | 2.46
303.15 K, x1 = 0.2876 | 1312.6 | 2.23
303.15 K, x1 = 0.4091 | 1309 | 2.03
303.15 K, x1 = 0.5182 | 1305.6 | 1.85
303.15 K, x1 = 0.6173 | 1302.5 | 1.69
303.15 K, x1 = 0.7078 | 1299.2 | 1.55
303.15 K, x1 = 0.7902 | 1296.4 | 1.42
303.15 K, x1 = 0.8658 | 1293.8 | 1.31
303.15 K, x1 = 0.9355 | 1291.2 | 1.21
303.15 K, x1 = 1 | – | 1.12
313.15 K, x1 = 0.1524 | 1279.7 | 2.01
313.15 K, x1 = 0.2876 | 1275.8 | 1.84
313.15 K, x1 = 0.4091 | 1272 | 1.68
313.15 K, x1 = 0.5182 | 1268.5 | 1.54
313.15 K, x1 = 0.6173 | 1265.1 | 1.42
313.15 K, x1 = 0.7078 | 1261.5 | 1.31
313.15 K, x1 = 0.7902 | 1258.3 | 1.21
313.15 K, x1 = 0.8658 | 1255.3 | 1.12
313.15 K, x1 = 0.9355 | 1252.3 | 1.03
313.15 K, x1 = 1 | – | 0.961
323.15 K, x1 = 0.1524 | 1243.6 | 1.68
323.15 K, x1 = 0.2876 | 1239.6 | 1.54
323.15 K, x1 = 0.4091 | 1235.5 | 1.42
323.15 K, x1 = 0.5182 | 1231.8 | 1.31
323.15 K, x1 = 0.6173 | 1228.2 | 1.21
323.15 K, x1 = 0.7078 | 1224.3 | 1.12
323.15 K, x1 = 0.7902 | 1220.8 | 1.04
323.15 K, x1 = 0.8658 | 1217.6 | 0.966
323.15 K, x1 = 0.9355 | 1214.1 | 0.897
323.15 K, x1 = 1 | – | 0.837
333.15 K, x1 = 0.1524 | 1208.1 | 1.42
333.15 K, x1 = 0.2876 | 1203.9 | 1.31
333.15 K, x1 = 0.4091 | 1199.7 | 1.21
333.15 K, x1 = 0.5182 | 1195.7 | 1.13
333.15 K, x1 = 0.6173 | 1191.8 | 1.05
333.15 K, x1 = 0.7078 | 1187.6 | 0.972
333.15 K, x1 = 0.7902 | 1183.9 | 0.906
333.15 K, x1 = 0.8658 | 1180.3 | 0.844
333.15 K, x1 = 0.9355 | 1176.4 | 0.783
333.15 K, x1 = 1 | – | 0.735
343.15 K, x1 = 0.1524 | – | 1.22
343.15 K, x1 = 0.2876 | – | 1.13
343.15 K, x1 = 0.4091 | – | 1.05
343.15 K, x1 = 0.5182 | – | 0.977
343.15 K, x1 = 0.6173 | – | 0.912
343.15 K, x1 = 0.7078 | – | 0.851
343.15 K, x1 = 0.7902 | – | 0.797
343.15 K, x1 = 0.8658 | – | 0.745
343.15 K, x1 = 0.9355 | – | 0.694
343.15 K, x1 = 1 | – | 0.648
353.15 K, x1 = 0.1524 | – | 1.06
353.15 K, x1 = 0.2876 | – | 0.987
353.15 K, x1 = 0.4091 | – | 0.921
353.15 K, x1 = 0.5182 | – | 0.86
353.15 K, x1 = 0.6173 | – | 0.805
353.15 K, x1 = 0.7078 | – | 0.753
353.15 K, x1 = 0.7902 | – | 0.706
353.15 K, x1 = 0.8658 | – | 0.662
353.15 K, x1 = 0.9355 | – | 0.619
353.15 K, x1 = 1 | – | 0.576

Conditions | surface tension liquid-gas [mN/m]
x1 = 0.1524 | 26.9
x1 = 0.2876 | 26.9
x1 = 0.4091 | 26.9
x1 = 0.5182 | 26.8
x1 = 0.6173 | 26.8
x1 = 0.7078 | 26.8
x1 = 0.7902 | 26.7
x1 = 0.8658 | 26.7
x1 = 0.9355 | 26.7

CCCCC1CCCCC1 [butylcyclohexane] + Cc1ccccc1
Conditions | speed of sound [m/s] | viscosity [mPa·s]
293.15 K, x1 = 0.0681 | 1321.1 | 0.622
293.15 K, x1 = 0.1544 | 1316.7 | 0.649
293.15 K, x1 = 0.2197 | 1314.5 | 0.678
293.15 K, x1 = 0.3045 | 1313 | 0.721
293.15 K, x1 = 0.3964 | 1312.8 | 0.774
293.15 K, x1 = 0.4964 | 1313.5 | 0.838
293.15 K, x1 = 0.6046 | 1315.6 | 0.916
293.15 K, x1 = 0.7244 | 1318.9 | 1.02
293.15 K, x1 = 0.8548 | 1323.3 | 1.16
293.15 K, x1 = 1 | – | 1.31
303.15 K, x1 = 0.0681 | 1278.6 | 0.552
303.15 K, x1 = 0.1544 | 1274.6 | 0.578
303.15 K, x1 = 0.2197 | 1272.7 | 0.603
303.15 K, x1 = 0.3045 | 1271.6 | 0.638
303.15 K, x1 = 0.3964 | 1271.6 | 0.683
303.15 K, x1 = 0.4964 | 1272.7 | 0.735
303.15 K, x1 = 0.6046 | 1275 | 0.8
303.15 K, x1 = 0.7244 | 1278.6 | 0.885
303.15 K, x1 = 0.8548 | 1283.3 | 0.991
303.15 K, x1 = 1 | – | 1.12
313.15 K, x1 = 0.0681 | 1236.5 | 0.495
313.15 K, x1 = 0.1544 | 1232.9 | 0.518
313.15 K, x1 = 0.2197 | 1231.4 | 0.538
313.15 K, x1 = 0.3045 | 1230.6 | 0.568
313.15 K, x1 = 0.3964 | 1230.9 | 0.607
313.15 K, x1 = 0.4964 | 1232.3 | 0.651
313.15 K, x1 = 0.6046 | 1234.9 | 0.704
313.15 K, x1 = 0.7244 | 1238.8 | 0.775
313.15 K, x1 = 0.8548 | 1243.7 | 0.862
313.15 K, x1 = 1 | – | 0.961
323.15 K, x1 = 0.0681 | 1194.9 | 0.446
323.15 K, x1 = 0.1544 | 1191.8 | 0.466
323.15 K, x1 = 0.2197 | 1190.6 | 0.484
323.15 K, x1 = 0.3045 | 1190.1 | 0.51
323.15 K, x1 = 0.3964 | 1190.7 | 0.541
323.15 K, x1 = 0.4964 | 1192.5 | 0.58
323.15 K, x1 = 0.6046 | 1195.4 | 0.625
323.15 K, x1 = 0.7244 | 1199.6 | 0.683
323.15 K, x1 = 0.8548 | 1204.8 | 0.754
323.15 K, x1 = 1 | – | 0.837
333.15 K, x1 = 0.0681 | 1153.9 | 0.405
333.15 K, x1 = 0.1544 | 1151.2 | 0.422
333.15 K, x1 = 0.2197 | 1150.3 | 0.437
333.15 K, x1 = 0.3045 | 1150.2 | 0.46
333.15 K, x1 = 0.3964 | 1151.1 | 0.486
333.15 K, x1 = 0.4964 | 1153.2 | 0.519
333.15 K, x1 = 0.6046 | 1156.5 | 0.558
333.15 K, x1 = 0.7244 | 1161 | 0.604
333.15 K, x1 = 0.8548 | 1166.5 | 0.663
333.15 K, x1 = 1 | – | 0.735
343.15 K, x1 = 0.0681 | – | 0.37
343.15 K, x1 = 0.1544 | – | 0.379
343.15 K, x1 = 0.2197 | – | 0.397
343.15 K, x1 = 0.3045 | – | 0.418
343.15 K, x1 = 0.3964 | – | 0.438
343.15 K, x1 = 0.4964 | – | 0.469
343.15 K, x1 = 0.6046 | – | 0.502
343.15 K, x1 = 0.7244 | – | 0.535
343.15 K, x1 = 0.8548 | – | 0.586
343.15 K, x1 = 1 | – | 0.648
353.15 K, x1 = 0.0681 | – | 0.325
353.15 K, x1 = 0.1544 | – | 0.345
353.15 K, x1 = 0.2197 | – | 0.356
353.15 K, x1 = 0.3045 | – | 0.373
353.15 K, x1 = 0.3964 | – | 0.395
353.15 K, x1 = 0.4964 | – | 0.426
353.15 K, x1 = 0.6046 | – | 0.451
353.15 K, x1 = 0.7244 | – | 0.49
353.15 K, x1 = 0.8548 | – | 0.532
353.15 K, x1 = 1 | – | 0.576

Conditions | surface tension liquid-gas [mN/m]
x1 = 0.0681 | 28.1
x1 = 0.1544 | 27.7
x1 = 0.2197 | 27.5
x1 = 0.3045 | 27.3
x1 = 0.3964 | 27.2
x1 = 0.4964 | 27
x1 = 0.6046 | 26.9
x1 = 0.7244 | 26.7
